Columns and labels:
Type in all cases: cell-based, human
NPBSCs [1] = assay: Dorsoventral patterning of NPBSCs by CHIR and PMA (qRT-PCR, immunostaining)
Method: Total RNA was isolated from cultured cells using RNeasy columns (Qiagen), according to manufacturer instructions, including an on-column DNase digest. Isolated RNA was reverse-transcribed using M-MLV Reverse Transcriptase (USB) with oligo-[…] primers (Metabion) for 1 h at 42° C. qRT-PCR was performed on an Applied Biosystems 7500 Real-Time PCR system with SYBR green PCR master mix (ABI) and 56 ng of original RNA equivalents per 20 μl PCR reaction. Cycling conditions were 40 cycles of 15 s, 95° C./60 s 60° C. Relative expression levels were calculated using the […] method, normalized to biological reference samples and using GAPDH and ACTB as housekeeping genes. Next, we sought to determine if NPBSCs remain competent for WNT and SHH mediated patterning of neural fate commitment. […] SHH signaling opposes dorsal neural fates and specifies ventral fates (Ulloa and Briscoe, 2007). […] Therefore, we conclude that NPBSCs are receptive to WNT and SHH induced dorsoventral patterning of neural fate specification. […] As such, the upregulation of these markers by NPBSCs could also be because of assuming a neural plate border and/or neural crest identity. To test this possibility, we assessed the responsiveness of the CNS progenitor marker SOX1 to SHH and WNT signaling. […] The inhibition by CHIR is the same that induced MSX1 and PAX3 upregulation.

differentiating hEBs = assay: NPBSC derivation from EBs with CHIR and/or PMA; conditions: EBs treated with the indicated small molecules; morphology, neural markers
Method: For generation of NPBSCs from pluripotent stem cells, colonies were detached from the MEFs three to four days after splitting, using 2 mg/ml collagenase IV (Invitrogen). Colony pieces were collected by sedimentation and resuspended in hESC medium (without FGF2) supplemented with 10 μM SB-431542 (Ascent Scientific), 1 μM dorsomorphin (Tocris) for neural induction, as well as 3 μM CHIR 99021 (Axon Medchem), 0.5 μM PMA (Alexis) and cultured in petri dishes. Medium was replaced on day two by N2B27 supplemented with the same small molecule supplements. N2B27 consisted of DMEM-F12 (Invitrogen)/Neurobasal (Invitrogen) 50:50 with 1:200 N2 supplement (Invitrogen), 1:100 B27 supplement lacking vitamin A (Invitrogen) with 1% Penicillin/Streptomycin/Glutamine (PAA). On day four, SB-431542 and dorsomorphin were withdrawn and 150 μM Ascorbic Acid (AA; Sigma) was added to the medium. […] BD Biosciences) 12 well plates at a density of about ten to fifteen per well in NPBSC expansion medium (N2B27 with CHIR, PMA and AA). For coating, Matrigel was diluted to a final dilution of 1:100 in Knockout DMEM (Invitrogen) prior to coat 500 μl per well of a 12 well plate over night. Coated plates were wrapped with Parafilm and kept in the fridge for up to one month. The first split was performed at a 1:5 to 1:10 ratio on day 2 to 4 after plating. All the remaining splitting ratios were 1:10. […]

NPBSCs [2] = assay: Neural rosette formation by NPBSC colonies cultured with FGF2
Method: (§1) For confocal microscopy, cells were plated on Matrigel-coated glass coverslips. Cultures were fixed for 20 minutes with 4% paraformaldehyde (Electron Microscopy Sciences) in PBS (Invitrogen) and washed twice with PBS. Permeabilization and blocking was done in one step using 0.1% Triton X-100 (Sigma Aldrich), 10% fetal calf serum (PAA) and 1% BSA in PBS for 45 minutes. Plates or coverslips were washed once with 0.1% BSA in PBS and the primary antibodies applied overnight at 4° C. in 1% BSA in PBS. The next day, following one washing step with 0.1% BSA in PBS, secondary antibodies were applied for one hour at room temperature in 1% BSA in PBS. Finally, cells were washed three times with 0.1% BSA in PBS-T (0.05% Tween 20), including a Hoechst counterstaining for nuclei in the second washing step. Cells were mounted in Vectashield mounting medium (Vector Labs) and imaged on a Zeiss PALM/Axiovert fluorescence microscope or a Zeiss LSM700 confocal microscope. If necessary, images were merged using ImageJ and Adobe Photoshop.
We tested this by culturing NPBSC colonies in the presence of FGF2, which has previously been reported to induce neural rosette formation by hEBs that have been plated (Zhang et al., 2001). […] For further characterization, we immunostained for ZO-1, which is expressed by neural rosettes but spatially localized to the apical surface (Elkabetz et al., 2008).

NPBSCs [3] = assay: Directed differentiation of NPBSCs into PNS neurons
Method: For generation of PNS neurons, NPBSCs two days after splitting were switched to N2B27 with only CHIR for two days. Afterward, 10 ng/ml BMP4 (R&D Systems) was added for eight days. Splitting and maturation was performed as described for the generation of motor neurons. For astrocyte and mesenchymal neural crest differentiation, NPBSCs were cultured with DMEM (PAA) with 10% fetal calf serum (PAA) and 1% Pen/Strep/Glutamin (PAA), beginning two days after splitting. Cultures were split twice at a 1:3 ratio when confluent using trypsin (Invitrogen).
as §1
Total RNA was isolated from cultured cells using RNeasy columns (Qiagen), according to manufacturer instructions, including an on-column DNase digest. […] Relative expression levels were calculated using the 2^−2Δ method, normalized to biological reference samples and using GAPDH and ACTB as housekeeping genes. […]

Molecule: Cc1cnc(-c2cnc(NCCNc3ccc(C#N)cn3)nc2-c2ccc(Cl)cc2Cl)[nH]1 [CHIR, 6-[[2-[[4-(2,4-dichlorophenyl)-5-(5-methyl-1H-imidazol-2-yl)-2-pyrimidinyl]amino]ethyl]amino]-3-pyridinecarbonitrile]
- SOX1 expression (NPBSCs [1]; 6 days): inhibited
- expression of dorsal neural progenitor markers MSX1 and PAX3 (NPBSCs [1]; 6 days culture): upregulated
- outcome of NPBSC derivation from EBs (differentiating hEBs): produced many non-neural cells

Molecule: FGF2: basic fibroblast growth factor, a member of the fibroblast growth factor family
- neural rosette formation (NPBSCs [2]; NPBSC colonies cultured with FGF2 for 2 days): numerous neural rosettes were formed
- ZO-1 expression localization (NPBSCs [2]; immunostaining after FGF2 treatment): re-oriented to the apical surface of the rosettes

B1: BMP4: activator of the BMP signalling pathway (Gene Symbol BMP4), from R&D Systems (protein, UniProt P12644 293-408, looked up)
Bone morphogenetic protein 4: SPKHHSQRARKKNKNCRRHSLYVDFSDVGWNDWIVAPPGYQAFYCHGDCPFPLADHLNSTNHAIVQTLVNSVNSSIPKACCVPTELSAISMLYLDEYDKVVLKNYQEMVVEGCGCR
- PERIPHERIN immunostaining of neurons (NPBSCs [3]; 8 days BMP4): majority of the neurons were PERIPHERIN-positive
- effect on neurogenesis (NPBSCs [3]; 8 days treatment): did not inhibit neurogenesis
- PERIPHERIN and BRN3A expression (NPBSCs [3]; qRT-PCR, 8 days of treatment): upregulated

Source: patent publication US10711244B2, “Mammalian neural plate border stem cells capable of forming neural tube and neural crest cell lineages including central and peripheral neurons” (Max-Planck-Gesellschaft zur Förderung der Wissenschaften …, priority 2012, dated 2020)
